{"source": "ChEMBL document CHEMBL1201862", "about": "“PubChem BioAssay data set” (2004)", "test_in_all_cases": "growth of human tumour cells (NCI), 48 h", "key": {"[1]": {"system": "MCF7"}, "[2]": {"system": "HCC 2998"}, "[3]": {"system": "COLO 205"}, "[4]": {"system": "SK-OV-3"}, "[5]": {"system": "SF-268"}, "[6]": {"system": "SR"}, "[7]": {"system": "IGROV-1"}, "[8]": {"system": "NCI-H522"}, "[9]": {"system": "ACHN"}, "[10]": {"system": "UACC-62"}, "[11]": {"system": "SNB-19"}, "[12]": {"system": "MOLT-4"}, "[13]": {"system": "HCT-15"}, "[14]": {"system": "U-251"}, "[15]": {"system": "SN12C"}, "[16]": {"system": "NCI-H23"}, "[17]": {"system": "OVCAR-4"}, "[18]": {"system": "DU-145"}, "[19]": {"system": "SK-MEL-2"}, "[20]": {"system": "M14"}, "[21]": {"system": "HT-29"}, "[22]": {"system": "PC-3"}, "[23]": {"system": "SW-620"}, "[24]": {"system": "RXF 393"}, "[25]": {"system": "CCRF-CEM"}, "[26]": {"system": "RPMI-8226"}, "[27]": {"system": "SF-295"}, "[28]": {"system": "SK-MEL-28"}, "[29]": {"system": "Hs-578T"}, "[30]": {"system": "HOP-92"}, "[31]": {"system": "NCI/ADR-RES"}, "[32]": {"system": "OVCAR-8"}, "[33]": {"system": "HOP-62"}, "[34]": {"system": "EKVX"}, "[35]": {"system": "MDA-MB-231"}, "[36]": {"system": "786-0"}, "[37]": {"system": "OVCAR-5"}, "[38]": {"system": "SK-MEL-5"}, "[39]": {"system": "K562"}, "[40]": {"system": "NCI-H460"}, "[41]": {"system": "SF-539"}, "[42]": {"system": "BT-549"}, "[43]": {"system": "MDA-MB-435"}, "[44]": {"system": "MDA-N"}, "[45]": {"system": "HCT-116"}, "[46]": {"system": "UACC-257"}, "[47]": {"system": "A549"}, "[48]": {"system": "OVCAR-3"}, "[49]": {"system": "KM12"}, "[50]": {"system": "CAKI-1"}, "[51]": {"system": "UO-31"}, "[52]": {"system": "SNB-75"}, "[53]": {"system": "HL-60"}, "[54]": {"system": "Malme-3M"}, "[55]": {"system": "LOX IMVI"}, "[56]": {"system": "TK-10"}, "[57]": {"system": "T47D"}, "[58]": {"system": "NCI-H226"}}, "note": "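Cultured in 96-well plates, cells were exposed to test compound for 48 hours across five concentrations. GI50 marks 50% less growth.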 Activity calls are given as the source filed them. Cut-off read from the data, not from the text of the source: active = GI50 up to about 1.1 µM and inactive = higher."}
{"compound": "CC(=O)OCC1OC(N2C(=S)N[C@H]([C@@H](O)[C@H](O)[C@H](O)CO)[C@H]2O)C(OC(C)=O)C(OC(C)=O)C1OC(C)=O", "note": "(some centres not stated)", "values": [{"measurement": "GI50", "setting": "[1]", "value": "> 100 µM (inactive)"}, {"measurement": "GI50", "setting": "[2]", "value": "> 100 µM (inactive)"}, {"measurement": "GI50", "setting": "[3]", "value": "> 100 µM (inactive)"}, {"measurement": "GI50", "setting": "[4]", "value": "> 100 µM (inactive)"}, {"measurement": "GI50", "setting": "[5]", "value": "> 100 µM (inactive)"}, {"measurement": "GI50", "setting": "[6]", "value": "> 100 µM (inactive)"}, {"measurement": "GI50", "setting": "[7]", "value": "> 100 µM (inactive)"}, {"measurement": "GI50", "setting": "[8]", "value": "> 100 µM (inactive)"}, {"measurement": "GI50", "setting": "[9]", "value": "> 100 µM (inactive)"}, {"measurement": "GI50", "setting": "[10]", "value": "> 100 µM (inactive)"}, {"measurement": "GI50", "setting": "[11]", "value": "> 100 µM (inactive)"}, {"measurement": "GI50", "setting": "[12]", "value": "> 100 µM (inactive)"}, {"measurement": "GI50", "setting": "[13]", "value": "> 100", "unit": "µM"}, {"measurement": "GI50", "setting": "[14]", "value": "> 100 µM (inactive)"}, {"measurement": "GI50", "setting": "[15]", "value": "> 100 µM (inactive)"}, {"measurement": "GI50", "setting": "[16]", "value": "> 100 µM (inactive)"}, {"measurement": "GI50", "setting": "[17]", "value": "> 100 µM (inactive)"}, {"measurement": "GI50", "setting": "[18]", "value": "> 100 µM (inactive)"}, {"measurement": "GI50", "setting": "[19]", "value": "> 100 µM (inactive)"}, {"measurement": "GI50", "setting": "[20]", "value": "> 100 µM (inactive)"}, {"measurement": "GI50", "setting": "[21]", "value": "> 100 µM (inactive)"}, {"measurement": "GI50", "setting": "[22]", "value": "> 100 µM (inactive)"}, {"measurement": "GI50", "setting": "[23]", "value": "> 100 µM (inactive)"}, {"measurement": "GI50", "setting": "[24]", "value": "> 100 µM (inactive)"}, {"measurement": "GI50", "setting": "[25]", "value": "> 100 µM (inactive)"}, {"measurement": "GI50", "setting": "[26]", "value": "> 100 µM (inactive)"}, {"measurement": "GI50", "setting": "[27]", "value": "> 100 µM (inactive)"}, {"measurement": "GI50", "setting": "[28]", "value": "> 100 µM (inactive)"}, {"measurement": "GI50", "setting": "[29]", "value": "> 100 µM (inactive)"}, {"measurement": "GI50", "setting": "[30]", "value": "> 100 µM (inactive)"}, {"measurement": "GI50", "setting": "[31]", "value": "> 100 µM (inactive)"}, {"measurement": "GI50", "setting": "[32]", "value": "> 100 µM (inactive)"}, {"measurement": "GI50", "setting": "[33]", "value": "> 100 µM (inactive)"}, {"measurement": "GI50", "setting": "[34]", "value": "> 100 µM (inactive)"}, {"measurement": "GI50", "setting": "[35]", "value": "> 100 µM (inactive)"}, {"measurement": "GI50", "setting": "[36]", "value": "> 100 µM (inactive)"}, {"measurement": "GI50", "setting": "[37]", "value": "> 100 µM (inactive)"}, {"measurement": "GI50", "setting": "[38]", "value": "> 100 µM (inactive)"}, {"measurement": "GI50", "setting": "[39]", "value": "> 100 µM (inactive)"}, {"measurement": "GI50", "setting": "[40]", "value": "> 100 µM (inactive)"}, {"measurement": "GI50", "setting": "[41]", "value": "> 100 µM (inactive)"}, {"measurement": "GI50", "setting": "[42]", "value": "> 100 µM (inactive)"}, {"measurement": "GI50", "setting": "[43]", "value": "> 100 µM (inactive)"}, {"measurement": "GI50", "setting": "[44]", "value": "> 100 µM (inactive)"}, {"measurement": "GI50", "setting": "[45]", "value": "> 100 µM (inactive)"}, {"measurement": "GI50", "setting": "[46]", "value": "> 100 µM (inactive)"}, {"measurement": "GI50", "setting": "[47]", "value": "> 100 µM (inactive)"}, {"measurement": "GI50", "setting": "[48]", "value": "> 100 µM (inactive)"}, {"measurement": "GI50", "setting": "[49]", "value": "> 100 µM (inactive)"}, {"measurement": "GI50", "setting": "[50]", "value": "> 100 µM (inactive)"}, {"measurement": "GI50", "setting": "[51]", "value": "> 100 µM (inactive)"}]}
{"compound": "Cc1ccc2nc(N/N=C/c3ccc(C)s3)cc(C)c2c1", "values": [{"measurement": "GI50", "setting": "[1]", "value": "6.79 µM (inactive)"}, {"measurement": "GI50", "setting": "[2]", "value": "4.69 µM (inactive)"}, {"measurement": "GI50", "setting": "[3]", "value": "3.79 µM (inactive)"}, {"measurement": "GI50", "setting": "[52]", "value": "> 10 µM (inactive)"}, {"measurement": "GI50", "setting": "[4]", "value": "18.3 µM (inactive)"}, {"measurement": "GI50", "setting": "[53]", "value": "4.71 µM (inactive)"}, {"measurement": "GI50", "setting": "[5]", "value": "11.6 µM (inactive)"}, {"measurement": "GI50", "setting": "[6]", "value": "19.7 µM (inactive)"}, {"measurement": "GI50", "setting": "[7]", "value": "6.87 µM (inactive)"}, {"measurement": "GI50", "setting": "[54]", "value": "12.8 µM (inactive)"}, {"measurement": "GI50", "setting": "[8]", "value": "4.52 µM (inactive)"}, {"measurement": "GI50", "setting": "[9]", "value": "11.7 µM (inactive)"}, {"measurement": "GI50", "setting": "[10]", "value": "10.6 µM (inactive)"}, {"measurement": "GI50", "setting": "[11]", "value": "12.9 µM (inactive)"}, {"measurement": "GI50", "setting": "[12]", "value": "5.75 µM (inactive)"}, {"measurement": "GI50", "setting": "[13]", "value": 4.52, "unit": "µM"}, {"measurement": "GI50", "setting": "[14]", "value": "9.51 µM (inactive)"}, {"measurement": "GI50", "setting": "[15]", "value": "12.7 µM (inactive)"}, {"measurement": "GI50", "setting": "[16]", "value": "7.98 µM (inactive)"}, {"measurement": "GI50", "setting": "[55]", "value": "4.53 µM (inactive)"}, {"measurement": "GI50", "setting": "[17]", "value": "10.3 µM (inactive)"}, {"measurement": "GI50", "setting": "[18]", "value": "11 µM (inactive)"}, {"measurement": "GI50", "setting": "[19]", "value": "19 µM (inactive)"}, {"measurement": "GI50", "setting": "[20]", "value": "10.2 µM (inactive)"}, {"measurement": "GI50", "setting": "[21]", "value": "3.51 µM (inactive)"}, {"measurement": "GI50", "setting": "[22]", "value": "11.8 µM (inactive)"}, {"measurement": "GI50", "setting": "[23]", "value": "6.1 µM (inactive)"}, {"measurement": "GI50", "setting": "[56]", "value": "8.97 µM (inactive)"}, {"measurement": "GI50", "setting": "[24]", "value": "13.3 µM (inactive)"}, {"measurement": "GI50", "setting": "[25]", "value": "5.11 µM (inactive)"}, {"measurement": "GI50", "setting": "[26]", "value": "3.61 µM (inactive)"}, {"measurement": "GI50", "setting": "[27]", "value": "7.94 µM (inactive)"}, {"measurement": "GI50", "setting": "[28]", "value": "6.76 µM (inactive)"}, {"measurement": "GI50", "setting": "[29]", "value": "15.2 µM (inactive)"}, {"measurement": "GI50", "setting": "[30]", "value": "4.44 µM (inactive)"}, {"measurement": "GI50", "setting": "[57]", "value": "7.91 µM (inactive)"}, {"measurement": "GI50", "setting": "[31]", "value": "12.3 µM (inactive)"}, {"measurement": "GI50", "setting": "[58]", "value": "10.1 µM (inactive)"}, {"measurement": "GI50", "setting": "[32]", "value": "12.9 µM (inactive)"}, {"measurement": "GI50", "setting": "[33]", "value": "15.7 µM (inactive)"}, {"measurement": "GI50", "setting": "[34]", "value": "5.7 µM (inactive)"}, {"measurement": "GI50", "setting": "[35]", "value": "16.1 µM (inactive)"}, {"measurement": "GI50", "setting": "[36]", "value": "3.37 µM (inactive)"}, {"measurement": "GI50", "setting": "[37]", "value": "10.1 µM (inactive)"}, {"measurement": "GI50", "setting": "[38]", "value": "4.56 µM (inactive)"}, {"measurement": "GI50", "setting": "[39]", "value": "3.99 µM (inactive)"}, {"measurement": "GI50", "setting": "[41]", "value": "11 µM (inactive)"}, {"measurement": "GI50", "setting": "[43]", "value": "7.31 µM (inactive)"}, {"measurement": "GI50", "setting": "[44]", "value": "7.8 µM (inactive)"}, {"measurement": "GI50", "setting": "[45]", "value": "3.7 µM (inactive)"}, {"measurement": "GI50", "setting": "[46]", "value": "5.56 µM (inactive)"}, {"measurement": "GI50", "setting": "[47]", "value": "6.79 µM (inactive)"}, {"measurement": "GI50", "setting": "[48]", "value": "6.24 µM (inactive)"}, {"measurement": "GI50", "setting": "[49]", "value": "4.76 µM (inactive)"}, {"measurement": "GI50", "setting": "[50]", "value": "17.1 µM (inactive)"}, {"measurement": "GI50", "setting": "[51]", "value": "9.82 µM (inactive)"}]}
